Data: ChEMBL document CHEMBL1155853, “N-(thiazol-2-yl)-2-thiophene carboxamide derivatives as Abl inhibitors identified by a pharmacophore-based database screening of commercially available compounds” (Bioorg Med Chem Lett, 2008)

Biological target: Tyrosine-protein kinase ABL1 (Homo sapiens, UniProt P00519)
Assay: Inhibition of Abl kinase by cell free assay

Tyrosine-protein kinase ABL1, sequence (P00519 whole entry): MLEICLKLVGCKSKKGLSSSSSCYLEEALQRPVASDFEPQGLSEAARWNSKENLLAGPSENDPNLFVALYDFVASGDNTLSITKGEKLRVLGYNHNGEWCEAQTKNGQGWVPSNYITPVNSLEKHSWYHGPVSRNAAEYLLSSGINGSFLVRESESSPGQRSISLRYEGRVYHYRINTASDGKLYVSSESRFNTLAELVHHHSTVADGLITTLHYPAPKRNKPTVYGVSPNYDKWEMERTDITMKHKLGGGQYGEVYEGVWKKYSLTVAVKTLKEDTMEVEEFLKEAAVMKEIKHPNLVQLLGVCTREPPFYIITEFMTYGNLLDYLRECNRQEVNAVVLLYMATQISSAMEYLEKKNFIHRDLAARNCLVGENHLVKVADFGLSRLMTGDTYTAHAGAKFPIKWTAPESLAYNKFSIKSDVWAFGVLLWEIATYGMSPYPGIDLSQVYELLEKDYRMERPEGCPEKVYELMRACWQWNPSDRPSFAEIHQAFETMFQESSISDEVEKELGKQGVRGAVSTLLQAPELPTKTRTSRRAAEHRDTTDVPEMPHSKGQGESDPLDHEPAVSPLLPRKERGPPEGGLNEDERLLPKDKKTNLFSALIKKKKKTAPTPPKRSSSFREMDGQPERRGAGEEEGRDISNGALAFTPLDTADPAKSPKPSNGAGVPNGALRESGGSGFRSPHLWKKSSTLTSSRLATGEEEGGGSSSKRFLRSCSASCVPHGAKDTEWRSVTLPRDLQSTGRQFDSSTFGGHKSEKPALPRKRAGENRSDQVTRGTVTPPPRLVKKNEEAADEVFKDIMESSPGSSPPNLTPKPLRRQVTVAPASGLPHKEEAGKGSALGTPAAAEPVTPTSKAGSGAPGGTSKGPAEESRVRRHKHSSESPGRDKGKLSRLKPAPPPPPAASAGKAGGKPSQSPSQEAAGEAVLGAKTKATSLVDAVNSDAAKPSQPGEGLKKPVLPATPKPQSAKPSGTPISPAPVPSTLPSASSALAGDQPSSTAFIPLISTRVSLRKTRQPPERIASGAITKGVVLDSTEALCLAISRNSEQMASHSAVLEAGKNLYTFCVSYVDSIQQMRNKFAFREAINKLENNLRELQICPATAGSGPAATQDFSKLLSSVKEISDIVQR

Going from `O=C(Nc1ncc(Cc2ccc(Cl)cc2Cl)s1)c1cccs1` to `O=C(Nc1ncc(Cc2cc(Cl)ccc2Cl)s1)c1cccs1`, the Ki falls from 3470 nM to 50 nM (69-fold).

Compared with `COc1ccc(Cc2cnc(NC(=O)c3cccs3)s2)cc1`, `Cc1ccc(Cc2cnc(NC(=O)c3cccs3)s2)cc1` is 16-fold higher in Ki: 16 nM for the first, 249 nM for the second.

Compared with `O=C(Nc1ncc(-c2ccc(F)cc2)s1)c1cccs1`, `O=C(Nc1ncc(-c2ccc(Cl)cc2)s1)c1cccs1` is 2.1-fold lower in Ki: 1650 nM for the first, 791 nM for the second. The second binds more tightly here.

`COc1ccc2c(c1)Cc1sc(NC(=O)c3cccs3)nc1-2` and `Cc1cccc(Cc2cnc(NC(=O)c3cccs3)s2)c1` are within 1.5-fold of each other in Ki: 68 nM for the first, 59 nM for the second.

`O=C(Nc1nnc(COc2ccccc2)s1)c1cccs1` and `O=C(Nc1nnc(Cc2ccccc2)s1)c1cccs1` are within 1.5-fold of each other in Ki: 278 nM for the first, 360 nM for the second.

Going from `O=C(Nc1ncc(Cc2cccc(C(F)(F)F)c2)s1)c1cccs1` to `O=C(Nc1ncc(Cc2cc(C(F)(F)F)ccc2Cl)s1)c1cccs1`, the Ki rises from 136 nM to 845 nM (6.2-fold). The first binds more tightly here.

`O=C(Nc1ncc(Cc2ccccc2F)s1)c1cccs1` and `O=C(Nc1ncc(Cc2ccccc2Cl)s1)c1cccs1` are within 1.5-fold of each other in Ki: 170 nM for the first, 245 nM for the second.

First: O=C(Nc1ncc(Cc2ccc(Cl)cc2)s1)c1cccs1
Second: O=C(Nc1ncc(Cc2ccc(F)cc2)s1)c1cccs1
The Ki of the first is 4.8-fold higher: 624 nM for the first, 130 nM for the second. The second binds more tightly here.

`O=C(Nc1ncc(Cc2ccccc2)s1)c1cccs1` and `O=C(Nc1ncc(Cc2cccc(Cl)c2)s1)c1cccs1` are within 1.5-fold of each other in Ki: 90 nM for the first, 97 nM for the second.
